Drawing on ChEMBL document CHEMBL2331464, “Diarylheptanoids and flavonoids from viscum album inhibit LPS-stimulated production of pro-inflammatory cytokines in bone marrow-derived dendritic cells” (J Nat Prod, 2013), this text covers IC50 and Activity for 26 molecules.

Common to all, as to details: bmdc
One data set deals with IL-6 (mouse). Nature of the data set: Antiinflammatory activity in C57BL/6 mouse BMDCs assessed as inhibition of LPS-stimulated IL-6 production treated 1 hr before LPS challenge measured 16 hrs post stimulation by ELISA. On the technique in general: In an ELISA, binding on a coated surface is turned into a signal by an enzyme label.
Data set [1] is described as follows: Cytotoxicity against C57BL/6 mouse BMDCs at 2 to 50 microM by MTT assay.
Data set [2] in a line: Antiinflammatory activity in C57BL/6 mouse BMDCs assessed as inhibition of LPS-stimulated TNF-alpha production treated 1 hr before LPS challenge measured 16 hrs post stimulation by ELISA.
A short description of data set [3]: Antiinflammatory activity in C57BL/6 mouse BMDCs assessed as inhibition of LPS-stimulated IL-12p40 production treated 1 hr before LPS challenge measured 16 hrs post stimulation by ELISA.

In general, IC50 refers to the concentration that inhibits the measured activity by half. As for `COc1cc(O)c2c(c1)O[C@H](c1ccc(O[C@@H]3O[C@H](CO)[C@@H](O)[C@H](O)[C@H]3O[C@@H]3OC[C@](O)(CO[C@@H]4OC[C@](O)(CO)[C@H]4O)[C@H]3O)c(OC)c1)CC2=O`, the half-maximal inhibitory concentration (IC50) (in the data set with IL-6 (mouse); in data set [2]; in data set [3]) was > 50 µM throughout. In addition, in data set [1], the Activity result was “Non-toxic”.

In the case of `COc1cc(O)c2c(c1)O[C@H](c1ccc(O[C@@H]3O[C@H](CO)[C@@H](O)[C@H](O)[C@H]3O[C@@H]3OC[C@](O)(CO)[C@H]3O)c(OC)c1)CC2=O`, the IC50 (with IL-6 (mouse); in data set [2]; in data set [3]) was > 50 µM in each case. Further, in data set [1], the Activity result is recorded as “Non-toxic”.

Turning to `COc1cc([C@@H]2CC(=O)c3c(O)cc(O[C@@H]4O[C@H](CO)[C@@H](O)[C@H](O)[C@H]4O[C@@H]4OC[C@](O)(CO)[C@H]4O)cc3O2)ccc1O`, the IC50 (in the data set on IL-6 (mouse); in data set [2]; in data set [3]) was > 50 µM in each case. For the same molecule, the Activity entry in data set [1] is “Non-toxic”.

Consider `COc1cc([C@@H]2c3c(cc(OC)c(O)c3OC)C[C@H](CO)[C@H]2CO[C@@H]2O[C@H](CO)[C@@H](O)[C@H](O)[C@H]2O)cc(OC)c1O`, for which the 50% inhibitory concentration (IC50) was > 50 µM with IL-6 (mouse), > 50 µM in data set [2] and 14.6 µM in data set [3]. For the same molecule, the Activity entry in data set [1] is “Non-toxic”.

Regarding `COc1cc(/C=C/CO)cc(OC)c1O[C@@H]1O[C@H](CO)[C@@H](O)[C@H](O)[C@H]1O[C@@H]1OC[C@](O)(CO)[C@H]1O`, the IC50 (in the data set with IL-6 (mouse); in data set [2]; in data set [3]) was > 50 µM throughout. In addition, the Activity entry in data set [1] is reported as “Non-toxic”.

On to `CO[C@@H](/C=C/c1ccc(O)cc1)C[C@@H](O)CCc1ccc(O)cc1`, for which the IC50 with IL-6 (mouse) came to 0.68 µM; in data set [2], 0.32 µM; in data set [3], 0.09 µM. Moreover, the Activity entry in data set [1] is recorded as “Non-toxic”.

As to `CO[C@H](/C=C/c1ccc(O)cc1)C[C@@H](O)CCc1ccc(O)cc1`, the half-maximal inhibitory concentration (IC50) in the data set on IL-6 (mouse) was > 50 µM; in data set [2], > 50 µM; in data set [3], 11.8 µM. The Activity entry in data set [1] is on record as “Non-toxic”.

In the case of `O=C(/C=C/c1ccc(O)cc1)C[C@@H](O)CCc1ccc(O)cc1`, the IC50 (with IL-6 (mouse); in data set [2]; in data set [3]) was > 50 µM in each case. The Activity result in data set [1] is recorded as “Non-toxic”.

Consider `COc1cc(O)c2c(=O)c(OC)c(-c3ccc(O[C@@H]4O[C@H](CO)[C@@H](O)[C@H](O)[C@H]4O[C@@H]4OC[C@](O)(CO)[C@H]4O)c(OC)c3)oc2c1`, for which the IC50 in the data set on IL-6 (mouse) worked out at 8.96 µM; in data set [2], 1.01 µM; in data set [3], 3.86 µM. In addition, the Activity result in data set [1] was “Non-toxic”.

For `COc1cc(O)c2c(=O)c(O[C@H]3O[C@H](COC(=O)CC(C)(O)CC(=O)O)[C@@H](O)[C@H](O)[C@H]3O)c(-c3ccc(O[C@@H]4O[C@H](CO)[C@@H](O)[C@H](O)[C@H]4O)c(OC)c3)oc2c1` (some centres undefined), the IC50 (in the data set with IL-6 (mouse); in data set [2]; in data set [3]) was > 50 µM throughout. Besides, the Activity entry in data set [1] is “Non-toxic”.

With `COc1cc(O)c2c(=O)c(O[C@H]3O[C@H](COC(=O)CC(C)(O)CC(=O)OC[C@H]4O[C@@H](Oc5c(OC)cc(/C=C/CO)cc5OC)[C@H](O)[C@@H](O)[C@@H]4O)[C@@H](O)[C@H](O)[C@H]3O)c(-c3ccc(O[C@@H]4O[C@H](CO)[C@@H](O)[C@H](O)[C@H]4O)c(OC)c3)oc2c1` (some centres undefined), the IC50 (with IL-6 (mouse); in data set [2]; in data set [3]) was > 50 µM each time. Also, the Activity result in data set [1] is recorded as “Non-toxic”.

In the case of `COc1cc(-c2cc(=O)c3c(O)cc(O[C@@H]4O[C@H](CO)[C@@H](O)[C@H](O)[C@H]4O[C@@H]4OC[C@](O)(CO)[C@@H]4O)cc3o2)ccc1O`, the half-inhibitory concentration (IC50) with IL-6 (mouse) was > 50 µM; in data set [2] it was > 50 µM; in data set [3], 76.8 µM. The Activity entry in data set [1] is recorded as “Non-toxic”.

As to `COc1cc(O)c2c(=O)cc(-c3ccc(O[C@@H]4O[C@H](CO)[C@@H](O)[C@H](O)[C@H]4O[C@@H]4OC[C@](O)(CO)[C@H]4O)c(OC)c3)oc2c1`, the half-inhibitory concentration (IC50) (in the data set with IL-6 (mouse); in data set [2]; in data set [3]) was > 50 µM in each case. Further, the Activity entry in data set [1] was “Non-toxic”.

Regarding `COc1cc([C@H]2OC[C@H]3[C@@H]2CO[C@@H]3c2cc(OC)c(O)c(OC)c2)ccc1O`, the IC50 came out at 20.9 µM in the data set on IL-6 (mouse), 22.3 µM in data set [2] and 2 µM in data set [3]. Besides, the Activity result in data set [1] is recorded as “Non-toxic”.

With `COc1cc([C@H]2c3c(cc(OC)c(O)c3OC)C[C@@H](CO)[C@@H]2CO[C@@H]2O[C@H](CO)[C@@H](O)[C@H](O)[C@H]2O)cc(OC)c1O`, the IC50 (in the data set with IL-6 (mouse); in data set [2]; in data set [3]) was > 50 µM in each case. The Activity entry in data set [1] is “Non-toxic”.

As to `COc1cc([C@H]2OC[C@H]3[C@@H]2CO[C@@H]3c2ccc(O)c(OC)c2)ccc1O` [(+)-PINORESINOL], the Activity entry in data set [1] is given as “Non-toxic”.

Take `COc1cc([C@@H]2OC[C@@H]3[C@H]2CO[C@H]3c2ccc(O)c(OC)c2)ccc1O` [(+)-PINORESINOL]: the 50% inhibitory concentration (IC50) was > 50 µM with IL-6 (mouse), > 50 µM in data set [2] and 28.6 µM in data set [3].

On to `C=C(C)[C@@H]1CC[C@]2(C(=O)O)CC[C@]3(C)[C@H](CC[C@@H]4[C@@]5(C)CC[C@H](O)C(C)(C)[C@@H]5CC[C@]43C)[C@@H]12` [BETULINIC ACID], for which the values for the concentration for half-maximal inhibition (IC50) (in the data set with IL-6 (mouse); in data set [2]; in data set [3]) were 21.3 µM, 19.4 µM and 3.61 µM, respectively. Moreover, the Activity entry in data set [1] is recorded as “Non-toxic”.

Regarding `CC1(C)CC[C@]2(CO)CC[C@]3(C)C(=CC[C@@H]4[C@@]5(C)CC[C@H](O)C(C)(C)[C@@H]5CC[C@]43C)[C@@H]2C1` [ERYTHRODIOL], the results for the IC50 (with IL-6 (mouse); in data set [2]; in data set [3]) were > 50 µM, > 50 µM and 13.5 µM, respectively. Also, the Activity entry in data set [1] was “Non-toxic”.

With `C=CC(C)(O)CC/C=C(\C)CCC=C(C)C` (centres undefined) [NEROLIDOL], the figures for the half-inhibitory concentration (IC50) (with IL-6 (mouse); in data set [2]; in data set [3]) were 20.2 µM, 2.02 µM and 7.57 µM, respectively. The Activity result in data set [1] is on record as “Non-toxic”.

As to `CC1(C)CC[C@]2(C(=O)O)CC[C@]3(C)C(=CC[C@@H]4[C@@]5(C)CC[C@H](O)C(C)(C)[C@@H]5CC[C@]43C)[C@@H]2C1` [OLEANOLIC_ACID], the half-inhibitory concentration (IC50) (in the data set with IL-6 (mouse); in data set [2]; in data set [3]) was > 50 µM each time. Besides, in data set [1], the Activity entry is listed as “Non-toxic”.

Consider `C[S+]([O-])c1ccc(-c2nc(-c3ccc(F)cc3)c(-c3ccncc3)[nH]2)cc1` (centres undefined) [SB-203580], for which the half-inhibitory concentration (IC50) came out at 3.45 µM in the data set on IL-6 (mouse), 7.53 µM in data set [2] and 5.21 µM in data set [3].

For `COc1cc(/C=C/CO)cc(OC)c1O[C@@H]1O[C@H](CO)[C@@H](O)[C@H](O)[C@H]1O` [SYRINGIN], the IC50 (in the data set with IL-6 (mouse); in data set [2]; in data set [3]) was > 50 µM in each case. Also, the Activity entry in data set [1] is “Non-toxic”.

Regarding `C/C(=C\CO)CCC[C@H](C)CCC[C@H](C)CCCC(C)C` [TRANS-PHYTOL], the half-maximal inhibitory concentration (IC50) is 2.02 µM with IL-6 (mouse), 1.22 µM in data set [2] and 3.62 µM in data set [3]. The Activity result in data set [1] is listed as “Non-toxic”.

With `COc1cc([C@@H]2CC(=O)c3c(O)cc(O[C@@H]4O[C@H](CO)[C@@H](O)[C@H](O)[C@H]4O[C@@H]4OC[C@](O)(CO[C@@H]5OC[C@](O)(CO)[C@H]5O)[C@H]4O)cc3O2)ccc1O` [VISCUMNEOSIDE V], the IC50 (with IL-6 (mouse); in data set [2]; in data set [3]) was > 50 µM each time. Also, the Activity result in data set [1] is “Non-toxic”.

Turning to `CC(=O)O[C@H]1CC[C@]2(C)[C@H]3CC=C4[C@@H]5CC(C)(C)CC[C@]5(C)CC[C@@]4(C)[C@]3(C)CC[C@H]2C1(C)C` [beta-AMYRIN ACETATE], the half-inhibitory concentration (IC50) (in the data set with IL-6 (mouse); in data set [2]; in data set [3]) was > 50 µM throughout. For the same molecule, the Activity result in data set [1] is “Non-toxic”.
